Measured values as given in article PMC4207410, “Clicked Cinnamic/Caffeic Esters and Amides as Radical Scavengers and 5-Lipoxygenase Inhibitors” (International Journal of Medicinal Chemistry, 2014).

How the values were obtained:
[1] = Antiradical activity assay (DPPH radical scavenging); settings: DPPH in ethanol, 30 min in the dark at room temperature, absorbance 520 nm; mean [SD] of 2 experiments
Protocol: The radical scavenging activity of test compounds was measured as previously described using 2,2-diphenyl-1-picrylhydrazyl (DPPH) as a stable radical with slight modifications. Particular care was taken in the preparation of the control (DPPH reagent + ethanol as a diluent without test compounds). Controls with O.D. of 0.350-0.360 at 520 nm were deemed as acceptable to avoid variations in IC50 calculations. 1 mL of DPPH in ethanol ([…]) was mixed with 1 mL of the test compounds at the indicated concentrations or their diluent (ethanol). Each mixture was then shaken vigorously and held in the dark for 30 min at room temperature. The absorbance of DPPH at 520 nm was then measured. The radical scavenging activity was expressed in terms of % inhibition of DPPH absorbance: (1) % Inhibition=[(Acontrol−Atest)/(Acontrol)] ×100, where A control is the absorbance of the control (DPPH solution without test compound) and A test is the absorbance of the test sample (DPPH solution plus compound). Data are expressed as means ± SD of 2 independent experiments, each performed in triplicate (Table 1). IC50 values were calculated from a sigmoidal concentration-response curve fitting model with a variable slope on GraphPad Prism 5 software (GraphPad software, San Diego, California).
Radical scavenging activities of analogous cinnamoyl esters 8a–h, cinnamoyl amides 9a–h, caffeoyl esters 15a–h, and caffeoyl amides 16a–h were assayed using 2,2-diphenyl-1-picrylhydrazyl (DPPH) as a stable radical and are expressed as IC50 concentrations in Table 1.

melting point	IC50 [1]	Structure (SMILES)
99 to 100 °C	–	O=C(C=Cc1ccccc1)OCCn1ccnn1 [8a, 2-(1H-1,2,3-Triazol-1-yl)ethyl Cinnamate]
63 to 64 °C	–	CCCc1cn(CCOC(=O)C=Cc2ccccc2)nn1 [8b, 2-(4-Propyl-1H-1,2,3-triazol-1-yl)ethyl Cinnamate]
119 °C	–	O=C(C=Cc1ccccc1)OCCn1cc(C2CCCCC2)nn1 [8c]
101 to 103 °C	–	O=C(C=Cc1ccccc1)OCCn1cc(C2=CCCCC2)nn1 [8d]
122 to 123 °C	–	O=C(C=Cc1ccccc1)OCCn1cc(-c2ccccc2)nn1 [8e]
139 to 140 °C	–	Cc1ccc(-c2cn(CCOC(=O)C=Cc3ccccc3)nn2)cc1 [8f]
134 to 135 °C	–	O=C(C=Cc1ccccc1)OCCn1cc(-c2ccc(F)cc2)nn1 [8g]
127 to 128 °C	–	O=Cc1ccc(-c2cn(CCOC(=O)C=Cc3ccccc3)nn2)cc1 [8h]
140 to 141 °C	–	O=C(C=Cc1ccccc1)NCCn1ccnn1 [9a]
159 to 161 °C	–	O=C(C=Cc1ccccc1)NCCn1cc(C2CCCCC2)nn1 [9c]
170 to 171 °C	–	O=C(C=Cc1ccccc1)NCCn1cc(C2=CCCCC2)nn1 [9d]
171 to 173 °C	–	O=C(C=Cc1ccccc1)NCCn1cc(-c2ccccc2)nn1 [9e]
208 °C	–	Cc1ccc(-c2cn(CCNC(=O)C=Cc3ccccc3)nn2)cc1 [9f]
193 to 196 °C	–	O=C(C=Cc1ccccc1)NCCn1cc(-c2ccc(F)cc2)nn1 [9g]
200 to 201 °C	–	O=Cc1ccc(-c2cn(CCNC(=O)C=Cc3ccccc3)nn2)cc1 [9h]
180 to 181 °C (dec.)	9.37 µM	CCCc1cn(CCOC(=O)/C=C/c2ccc(O)c(O)c2)nn1 [15b]
191 °C (dec.)	9.3 µM	O=C(/C=C/c1ccc(O)c(O)c1)OCCn1cc(C2CCCCC2)nn1 [15c]
193 to 195 °C (dec.)	15.1 µM	O=C(/C=C/c1ccc(O)c(O)c1)OCCn1cc(-c2ccccc2)nn1 [15e]
163 to 165 °C	15.4 µM	O=C(/C=C/c1ccc(O)c(O)c1)NCCn1ccnn1 [16a]
163 to 165 °C	12.1 µM	CCCc1cn(CCNC(=O)/C=C/c2ccc(O)c(O)c2)nn1 [16b]
183 to 184 °C	9.87 µM	O=C(/C=C/c1ccc(O)c(O)c1)NCCn1cc(C2CCCCC2)nn1 [16c]
168 to 169 °C	11.2 µM	O=C(/C=C/c1ccc(O)c(O)c1)NCCn1cc(C2=CCCCC2)nn1 [16d]
208 °C (dec.)	10.5 µM	O=C(/C=C/c1ccc(O)c(O)c1)NCCn1cc(-c2ccccc2)nn1 [16e]
228 to 230 °C (dec.)	18.1 µM	O=Cc1ccc(-c2cn(CCNC(=O)/C=C/c3ccc(O)c(O)c3)nn2)cc1 [16h]
–	75.4 µM	O=C1O[C@H]([C@@H](O)CO)C(O)=C1O [Ascorbic acid, reference compound]
